Measured values taken from ChEMBL document CHEMBL5137057, “Small Carbohydrate Derivatives as Potent Antibiofilm Agents” (J Med Chem, 2022).
≈ marks a conversion by molar mass, not a printed value.

What was measured:
[1] = molecular target: Type 1 fimbrin D-mannose specific adhesin (Escherichia coli K-12) (UniProt P08191); assay: Relative inhibitory potency, ratio of methyl alpha-D-mannose Kd to compound Kd for binding affinity to C-terminal His-tagged truncated Escherichia coli FimH by SPR analysis; details: K12
Type 1 fimbrin D-mannose specific adhesin (Escherichia coli K-12), sequence (P08191 whole entry, the tested form may be a part): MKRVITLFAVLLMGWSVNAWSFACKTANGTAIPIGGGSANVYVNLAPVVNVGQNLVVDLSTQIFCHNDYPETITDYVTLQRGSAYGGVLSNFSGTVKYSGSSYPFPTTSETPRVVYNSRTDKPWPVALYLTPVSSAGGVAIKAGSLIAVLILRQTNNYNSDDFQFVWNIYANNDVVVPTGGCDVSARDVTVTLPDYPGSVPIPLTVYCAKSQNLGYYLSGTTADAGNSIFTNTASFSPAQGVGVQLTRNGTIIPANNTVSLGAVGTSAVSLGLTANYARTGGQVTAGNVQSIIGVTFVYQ

[2] = molecular target: T1, PA-I galactophilic lectin (Pseudomonas aeruginosa (strain ATCC 15692 / PAO1 / 1C / PRS 101 / LMG12228), UniProt Q05097); assay: Binding affinity to Pseudomonas aeruginosa LecA assessed as dissociation constant by isothermal titration calorimetry
T1 sequence (Q05097 whole entry): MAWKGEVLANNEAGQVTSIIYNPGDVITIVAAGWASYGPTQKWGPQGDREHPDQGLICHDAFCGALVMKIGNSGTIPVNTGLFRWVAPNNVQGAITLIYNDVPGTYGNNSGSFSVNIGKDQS

[3] = molecular target: Type 1 fimbrin D-mannose specific adhesin (Escherichia coli K-12) (UniProt P08191); assay: Inhibition of Escherichia coli UTI89 FimH by hemagglutination assay
[4] = tested on: Mycolicibacterium smegmatis; assay: Antibiofilm activity against Mycobacterium smegmatis MC2 155 assessed as […] measured after 48 hrs by crystal violet staining based analysis; type: functional
[5] = tested on: Mycolicibacterium smegmatis; assay: Antimicrobial activity against Mycobacterium smegmatis MC2 155 assessed as planktonic growth inhibition measured after 48 hrs by microplate reader analysis; type: functional
[6] = molecular target: T1, PA-I galactophilic lectin; assay: Inhibition of Pseudomonas aeruginosa LecA incubated for 4 to 6 hrs by fluorescence polarization based competitive binding analysis
Staphylococcus aureus [7] = assay: Antibiofilm activity against methicillin-sensitive Staphylococcus aureus UAMS-1 measured after 22 hrs by crystal violet staining based assay; type: functional; details: for MIC50: Staphylococcus aureus, UAMS-1
Staphylococcus aureus [8] = assay: Antibacterial activity against Staphylococcus aureus ATCC 25923 assessed as inhibition of biofilm formation incubated for 24 hrs by crystal violet staining based analysis relative to control; type: functional; set-up: scale not given: the % may be the effect or the level left
Serratia marcescens = assay: Antibacterial activity against Serratia marcescens ATCC 27117 assessed as inhibition of biofilm formation at 50 ug/ml incubated for 24 hrs by crystal violet staining based analysis relative to control; type: functional; set-up: scale not given: the % may be the effect or the level left; details: dose 50 µg/ml
Staphylococcus aureus [9] = assay: Potentiation of vancomycin-induced antibacterial activity against methicillin resistant Staphylococcus aureus Mu50 in presence of vancomycin; type: functional, organism-based
Streptococcus agalactiae [10] = assay: Antibiofilm activity against Streptococcus agalactiae GB2; type: functional
Streptococcus agalactiae [11] = assay: Antibiofilm activity against Streptococcus agalactiae GRS90; type: functional; details: dose 128 µg/ml; time 22 hrs
[12] = Binding affinity to Lactobacillus reuteri Glucosyltransferase assessed as dissociation constant by SPR analysis; set-up: species or system Limosilactobacillus reuteri
Staphylococcus aureus [13] = assay: Potentiation of vancomycin-induced antibacterial activity against methicillin resistant Staphylococcus aureus Mu50 pretreated with compound followed by vancomycin addition; type: functional, organism-based
Pseudomonas aeruginosa = assay: Antibiofilm activity against Pseudomonas aeruginosa PA14 measured after 48 hrs by confocal laser scanning microscope analysis relative to control; type: functional

SMILES: CO[C@H]1O[C@H](CO)[C@@H](O)[C@H](O)[C@@H]1O
- Ratio [1]: 1

SMILES: OC[C@H]1O[C@@H](OCc2cn([C@H]3[C@H](O)[C@@H](O)[C@H](n4cc(-c5ccc(-c6cn([C@@H]7O[C@H](CO)[C@@H](n8cc(CO[C@@H]9O[C@H](CO)[C@H](O)[C@H](O)[C@H]9O)nn8)[C@H](O)[C@H]7O)nn6)cc5)nn4)O[C@@H]3CO)nn2)[C@H](O)[C@@H](O)[C@H]1O
- Kd [2]: 0.012 µM

SMILES: CNC(=O)c1cc(C(=O)NC)cc(-c2ccc(O[C@H]3O[C@H](CO)[C@@H](O)[C@H](O)[C@@H]3O)cc2)c1
- EC>90 [3]: 375 nM

SMILES: [N-]=[N+]=N[C@H]1[C@@H](O[C@H]2O[C@H](CO)[C@@H](O)[C@H](O)[C@H]2O)O[C@H](CO)[C@@H](O)[C@@H]1O
- MBIC [4]: 500 µM
- MIC [5]: > 500 µM

SMILES: OC[C@H]1O[C@@H](Oc2ccccc2)[C@H](O)[C@@H](O)[C@H]1O
- IC50 [6]: 13.2 µM

SMILES: O[C@H]1[C@@H](O)[C@H](C2CO2)O[C@@H](Oc2ccccc2)[C@@H]1O (single isomer, unassigned)
- IC50 [6]: > 3000 µM

SMILES: OC[C@H]1O[C@H](O[C@H]2O[C@H](CO)[C@@H](O)[C@H](O)[C@H]2F)[C@H](O)[C@@H](O)[C@@H]1O
- MBIC [4]: 100 µM
- MIC [5]: > 500 µM

SMILES: C[C@@H]1O[C@@H](Oc2c(O)cc3c(=O)oc4c(O)c(O)cc5c(=O)oc2c3c45)[C@H](O)[C@H](O)[C@H]1O
- MBIC50 (Staphylococcus aureus [7]): 64 µg/mL
- MBIC90 (Staphylococcus aureus [7]): 128 µg/mL
- MIC50 (Staphylococcus aureus [7]): > 512 µg/mL

SMILES: O=C(O)/C=C(\C[C@@H]1O[C@H](CO)[C@H](O)[C@H](O)[C@H]1O)c1ccccc1
- Kd [2]: 37 µM

SMILES: CCCCCCC[C@H](CC(=O)N1CCCCC1)OC(=O)C[C@@H](CCCCCCC)O[C@@H]1O[C@@H](C)[C@H](O)[C@@H](O)[C@H]1O[C@@H]1O[C@@H](C)[C@H](O)[C@@H](O)[C@H]1O
- Activity (Staphylococcus aureus [8]): >90%
- Activity (Serratia marcescens): >80%

SMILES: O=C(NC[C@]1(O)CO[C@H](CNC(=O)c2ccccc2Cl)[C@H]1O)c1ccccc1
- EC50 (Staphylococcus aureus [9]): 7.98 µM

SMILES: O=c1oc2c(O[C@@H]3OC[C@@H](O)[C@H](O)[C@H]3O)c(O)cc3c(=O)oc4c(O)c(O)cc1c4c23
- MBIC50 (Staphylococcus aureus [7]): 64 µg/mL
- MBIC90 (Staphylococcus aureus [7]): >512 µg/mL
- MIC50 (Staphylococcus aureus [7]): 32 µg/mL (≈ 73.7 µM)
- MBIC50 (Streptococcus agalactiae [10]): 512 µg/mL
- MBIC50 (Streptococcus agalactiae [11]): 512 µg/mL

SMILES: OC[C@H]1O[C@@H](Sc2ccc3ccccc3c2)[C@H](O)[C@@H](O)[C@H]1O
- EC50 (Staphylococcus aureus [9]): 7.97 µM

SMILES: O=c1[nH]ccc2ccc(-c3ccc(O[C@H]4O[C@H](CO)[C@@H](O)[C@H](O)[C@@H]4O)cc3)cc12
- EC>90 [3]: 100 nM

SMILES: C[C@H]1O[C@H](O[C@H]2O[C@H](CO)[C@@H](O)[C@H](O)[C@H]2O)[C@H](O)[C@@H](O)[C@@H]1O
- MBIC [4]: 100 µM
- MIC [5]: > 500 µM

SMILES: O=C(NC[C@@H]1O[C@H](CNC(=O)c2ccccc2Cl)[C@@H](O)[C@H]1O)c1ccccc1
- EC50 (Staphylococcus aureus [9]): 3.71 µM

SMILES: C[C@H]1[C@H](Oc2ccc(/C=N/NC(=O)COc3ccccc3Cl)cc2)O[C@H](CO)[C@@H](O)[C@@H]1O
- Kd [12]: 400 µM

SMILES: CNC(=O)c1cc(C(=O)NC)cc(-c2ccc(O[C@H]3O[C@H](CO)[C@@H](O)[C@H](O)[C@@H]3O)c(C)c2)c1
- EC>90 [3]: 16 nM

SMILES: O=C(NC[C@]1(O)CO[C@H](CN2C(=O)c3ccccc3C2=O)[C@H]1O)c1ccccc1Cl
- EC50 (Staphylococcus aureus [13]): 0.26 µM
- EC50 (Staphylococcus aureus [9]): 1.27 µM

SMILES: OC[C@H]1O[C@H](O[C@@H]2C[C@@H](O)[C@H](O)[C@@H](CO)O2)[C@H](O)[C@@H](O)[C@@H]1O
- MBIC [4]: 50 µM
- MIC [5]: > 500 µM

SMILES: CNC(=O)c1cccc(-c2ccc(O[C@H]3O[C@H](CO)[C@@H](O)[C@H](O)[C@@H]3O)cc2)c1
- EC>90 [3]: 500 nM

SMILES: O[C@H]1[C@@H](O)[C@@H](C2CO2)O[C@@H](Oc2ccccc2)[C@@H]1O (stereo not given in full)
- IC50 [6]: 64 µM

SMILES: C[C@@H]1O[C@H](CNS(=O)(=O)c2cccs2)[C@@H](O)[C@H](O)[C@@H]1O
- Activity (Pseudomonas aeruginosa): 80%
